Entries after “also recorded” stand apart in the source; their conditions may differ.

Results on one compound are retold here after patent US11220491B2, “Photoprotective compositions containing Malassezia-derived compounds and/or chemical analogs thereof” (Versicolor Technologies, LLC, priority 2018, dated 2022).

One test deals with MelanoDerm™ Skin Model. The test is described as follows: MelanoDerm assay, pigmentation of tissues (Example 12). It is filed as cell-based, human. As to conditions: day 7; 200 μM and 50 μM. The procedure:
The MelanoDerm™ Skin Model will be exposed to the test article for a total of 7 days. […] (Berridge et al., 1996).
Ten and 25 microliters, respectively, of each test article will be applied to each tissue. Twenty five microliters of the positive and negative controls, respectively, will be applied to each tissue.
The definitive assay will include a negative control and a positive control. The MelanoDerm™ tissues designated to the assay negative control will be treated with 25 μL of sterile, deionized water. Twenty five microliters of 1% Kojic acid (prepared in sterile, deionized water and filtered at the time of preparation) will be used to dose the tissues designated to the assay positive control. The 1% Kojic acid will be stored in a tube covered with aluminum foil until used within 2 hours of preparation. The negative and positive control exposure times will be identical to those used for the test articles.
The exact procedures used to collect images of the tissues will be specified in the study workbook and report.
The trial will be conducted over a 7-day timeframe.
The exact procedures used to collect images of the tissues will be specified in the study workbook and report. Then, the viability of the tissues will be determined by MTT reduction as indicated below.

The next test has as its system B16F1 cells. Kind of test: Annexin V assay (Example 16). It is filed as cell-based. As to conditions: 100 uM. Here is the method: (§1) Cells were harvested and the cell number was determined using a Countess Cell Counter. The cells were diluted with culture medium to the desired density.
(§2) Test compounds were dissolved in DMSO to 30 mM stock. […] After the indicated incubation time, the plates were removed from the incubator for detection.
(§3) For the Annexin V assay, plates were removed from the incubator and culture media was removed. […] Plates were read using ImageXpress Nano.

The next test concerns MeWo cells. The test is described as follows: Annexin V assay (Example 16). It is filed as cell-based. As to conditions: 100 uM. Here is the method:
as §1, §2, §3

Another test concerns WM115 cells. The test is described as follows: Annexin V assay (Example 16). It is filed as cell-based. As to conditions: 100 uM. Here is the method: as §1, §2, §3
The subject of test [1] is Caspase 3/7 in MeWo cells. Kind of test: Caspase-Glo 3/7 assay (Example 16). It is filed as cell-based. As to conditions: 100 uM. The procedure: as §1, §2
(§4) Caspase-Glo 3/7 reagents also were thawed and equilibrated to room temperature before the experiment.

Test [2] relates to Caspase 3/7 in WM115 cells. The test is described as follows: Caspase-Glo 3/7 assay (Example 16). It is filed as cell-based. As to conditions: 100 uM. Here is the method:
as §1, §2, §4

Test [3] has as its system UV-induced erythema of the subject's skin. The test is described as follows: In vivo photoprotection proof of concept, UVB irradiation of treated skin sites (Example 38). Set-up: species or system human. The text has this: The Malassezin 1% formulation used in this study contained the following ingredients: Water (aqua)—65.939%; Dimethyl isosorbide—20.000%; Olive Oil Glycereth-8 Esters—3.000%; Glycerin—2.991%; Coconut Alkanes—2.700%; Hydroxyethyl Acrylate/Sodium Acryloyldimethyl Taurate Copolymer—1.700%; Malassezin—1.000%; Pentylene Glycol—1.000%; Phenoxyethanol—0.640%; Coco-Caprylate/Caprate—0.300%; Caprylyl Glycol—0.200%; Chlorphenesin—0.160%; Sorbitan Isostearate—0.140%; Tocopherol—0.100%; Polysorbate 60-0.080%; and Disodium EDTA—0.050%.
A Skin Type IV […] was included in this Proof of Concept study.
A template of 6 squares was placed on the lower left back (1.5 cm×1.5 cm) of the test subject.
Twenty-four hours after irradiation, the subject returned for MED assessment.
A second right lower square was treated twice daily from day 4 to day 7, and a third medial square for one application on day 7. The product vehicle was applied for 7 days twice daily on the left back. The subject returned to the research center for irradiation on day 7. Each test site was irradiated with 120 mJ of UVB exposure. The subject returned in 24 hours for assessment of phototoxicity/photoprotection.
The subject continued the experiment, receiving Malassezin 1% for a total of 14 days. […]

Test [4] concerns primary human melanocytes. As to conditions: cited from earlier work.
Test [5] deals with T1, arylhydrocarbon receptor (AhR) (Homo sapiens, UniProt P35869).
T1 sequence (P35869 11-848): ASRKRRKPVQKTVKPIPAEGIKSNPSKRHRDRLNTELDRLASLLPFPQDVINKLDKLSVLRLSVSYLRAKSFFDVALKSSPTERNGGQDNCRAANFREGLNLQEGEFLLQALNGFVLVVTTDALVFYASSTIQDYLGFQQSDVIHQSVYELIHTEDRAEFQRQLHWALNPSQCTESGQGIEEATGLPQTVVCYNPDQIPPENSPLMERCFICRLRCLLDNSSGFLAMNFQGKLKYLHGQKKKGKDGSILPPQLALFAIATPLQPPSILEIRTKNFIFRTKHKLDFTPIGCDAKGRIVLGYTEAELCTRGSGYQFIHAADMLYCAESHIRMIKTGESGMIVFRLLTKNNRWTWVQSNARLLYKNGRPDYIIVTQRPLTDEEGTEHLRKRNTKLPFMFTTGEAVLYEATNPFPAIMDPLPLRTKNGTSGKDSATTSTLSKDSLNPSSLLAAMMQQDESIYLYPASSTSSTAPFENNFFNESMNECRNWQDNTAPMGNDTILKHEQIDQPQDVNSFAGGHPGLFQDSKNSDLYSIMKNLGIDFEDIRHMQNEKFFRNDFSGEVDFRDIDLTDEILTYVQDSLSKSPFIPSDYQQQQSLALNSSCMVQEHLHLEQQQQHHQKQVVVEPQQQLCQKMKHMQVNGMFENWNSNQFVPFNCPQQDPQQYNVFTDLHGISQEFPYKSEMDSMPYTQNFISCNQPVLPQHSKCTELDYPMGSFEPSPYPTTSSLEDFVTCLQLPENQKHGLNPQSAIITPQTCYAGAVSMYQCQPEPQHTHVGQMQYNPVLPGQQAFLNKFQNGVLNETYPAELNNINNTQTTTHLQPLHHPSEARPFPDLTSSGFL
Kind of test: HepG2-AhR-Luciferase assay. As to conditions: EC50 (uM), Table 2; 24 hours of treatment.
Method: HepG2-AhR-Luc cells were purchased from Pharmaron, One-Glo Luciferase assay system was purchased from Promega. DMEM was purchased from Hyclone, and penicillin/streptomycin was purchased from Solabio.
Culture media for stably transfected HepG2 cells was prepared by supplementing DMEM with high glucose and L-glutamine, as well as 10% FBS.
HepG2-AhR-Luc cells were cultured in T-75 flasks at 37° C., 5% CO2, and 95% relative humidity. Cells were allowed to reach 80-90% confluence before detachment and splitting.
Cultivated cells were rinsed with 5 mL PBS. PBS was aspirated away, 1.5 mL trypsin was added to the flask, and cells were incubated at 37° C. for approximately 5 minutes or until the cells detached and floated. Trypsin was inactivated by adding excess serum-containing media.
The cell suspension was transferred to a conical tube and centrifuged at 120 g for 10 minutes to pellet the cells. Cells were resuspended in seeding media at a proper density. 40 μL of cells were transferred to a 384-well culture plate (5×10^3 cells/well). Plates were placed in the incubator at 37° C. for 24 hours.
Afterward, stock solutions of test compounds and omeprazole positive control were prepared. Compound solutions were transferred into the assay plate using Echo550. The plate was then placed back into the incubator for compound treatment.
Later, after 24 hours of treatment, the plate was removed from the incubator and allowed to cool at ambient temperature. 30 μL One-Glo reagent equal to that of the culture medium was added in each well. Cells were allowed to lyse for at least 3 minutes, and then measured in a luminometer.
Dose responses were graphed using the non-linear regression analysis in XLfit and EC50 values were also calculated.

Test [6] addresses T1, arylhydrocarbon receptor (AhR). Set-up: HepG2 cells stably transfected with an AhR-responsive luciferase reporter gene plasmid; host or cells: HepG2-AhR-Luc (HepG2 stably transfected with an AhR-responsive luciferase reporter plasmid). As to conditions: cited from earlier work.

For `O=Cc1c(Cc2c[nH]c3ccccc23)[nH]c2ccccc12` [Malassezin, malassezin], the pigmentation of tissues result in the test on MelanoDerm™ Skin Model is “reduced pigmentation”. Moreover, the “cell death (Annexin V staining)” value in the test with B16F1 cells, in the test with MeWo cells and in the test with WM115 cells was “induced cell death” each time. Further, the “Caspase 3/7 activation” value in test [1] and in test [2] was “activated Caspase 3/7” each time. For the same compound, the “UV protection, conclusion of the study” value in test [3] was “UV-protective properties”. Further, the apoptosis induction entry in test [4] was “induces apoptosis”. The compound also came in with an EC50 in test [5] of 13.4 µM. Moreover, the AhR agonism entry in test [6] is given as “known agonist; also recorded: aryl hydrocarbon receptor agonist”.
